Results: US10308639B2, “Phosphatidylinositol 3-kinase inhibitors” (Gilead Sciences, Inc., priority 2014, dated 2019)
pIC50: −log10 of the molar value. Where two headings read alike, the source gives them in different places.

Key:
Assay type in all cases: biochemical
PI3Kβ = molecular target: T1, PI3Kβ (Homo sapiens, UniProt P42338); experiment: TR-FRET enzymatic activity assay, PI3Kβ
T1 construct: made in house

PI3Kδ = molecular target: T2, PI3Kδ (Homo sapiens, UniProt O00329); experiment: TR-FRET enzymatic activity assay, PI3Kδ
T2 construct: made in house
T2 sequence (O00329 whole entry): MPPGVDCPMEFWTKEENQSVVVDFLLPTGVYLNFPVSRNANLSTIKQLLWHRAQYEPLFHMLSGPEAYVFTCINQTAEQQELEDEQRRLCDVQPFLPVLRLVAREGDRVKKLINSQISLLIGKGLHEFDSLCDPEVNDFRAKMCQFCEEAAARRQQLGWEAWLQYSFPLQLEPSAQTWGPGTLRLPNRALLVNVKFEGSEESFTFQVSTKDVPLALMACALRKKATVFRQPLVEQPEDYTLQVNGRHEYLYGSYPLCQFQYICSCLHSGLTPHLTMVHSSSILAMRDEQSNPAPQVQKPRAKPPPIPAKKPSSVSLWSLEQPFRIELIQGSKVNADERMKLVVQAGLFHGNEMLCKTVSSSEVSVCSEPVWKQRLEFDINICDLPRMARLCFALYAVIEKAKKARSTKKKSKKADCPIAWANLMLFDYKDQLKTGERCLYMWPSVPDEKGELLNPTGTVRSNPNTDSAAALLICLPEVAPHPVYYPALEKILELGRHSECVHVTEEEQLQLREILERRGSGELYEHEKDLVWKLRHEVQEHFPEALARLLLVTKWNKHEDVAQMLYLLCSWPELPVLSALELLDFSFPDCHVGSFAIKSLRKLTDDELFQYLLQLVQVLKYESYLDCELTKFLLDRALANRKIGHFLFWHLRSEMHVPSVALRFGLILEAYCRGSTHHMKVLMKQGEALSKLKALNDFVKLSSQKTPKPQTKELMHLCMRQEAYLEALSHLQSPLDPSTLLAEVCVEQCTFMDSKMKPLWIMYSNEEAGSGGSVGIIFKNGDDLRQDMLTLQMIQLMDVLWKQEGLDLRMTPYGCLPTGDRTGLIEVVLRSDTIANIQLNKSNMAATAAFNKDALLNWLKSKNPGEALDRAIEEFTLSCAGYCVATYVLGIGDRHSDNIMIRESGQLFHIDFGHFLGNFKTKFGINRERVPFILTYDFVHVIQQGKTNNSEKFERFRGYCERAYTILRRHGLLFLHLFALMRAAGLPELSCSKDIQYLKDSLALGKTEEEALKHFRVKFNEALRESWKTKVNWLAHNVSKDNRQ
T2 sequence (P27986 whole entry partner): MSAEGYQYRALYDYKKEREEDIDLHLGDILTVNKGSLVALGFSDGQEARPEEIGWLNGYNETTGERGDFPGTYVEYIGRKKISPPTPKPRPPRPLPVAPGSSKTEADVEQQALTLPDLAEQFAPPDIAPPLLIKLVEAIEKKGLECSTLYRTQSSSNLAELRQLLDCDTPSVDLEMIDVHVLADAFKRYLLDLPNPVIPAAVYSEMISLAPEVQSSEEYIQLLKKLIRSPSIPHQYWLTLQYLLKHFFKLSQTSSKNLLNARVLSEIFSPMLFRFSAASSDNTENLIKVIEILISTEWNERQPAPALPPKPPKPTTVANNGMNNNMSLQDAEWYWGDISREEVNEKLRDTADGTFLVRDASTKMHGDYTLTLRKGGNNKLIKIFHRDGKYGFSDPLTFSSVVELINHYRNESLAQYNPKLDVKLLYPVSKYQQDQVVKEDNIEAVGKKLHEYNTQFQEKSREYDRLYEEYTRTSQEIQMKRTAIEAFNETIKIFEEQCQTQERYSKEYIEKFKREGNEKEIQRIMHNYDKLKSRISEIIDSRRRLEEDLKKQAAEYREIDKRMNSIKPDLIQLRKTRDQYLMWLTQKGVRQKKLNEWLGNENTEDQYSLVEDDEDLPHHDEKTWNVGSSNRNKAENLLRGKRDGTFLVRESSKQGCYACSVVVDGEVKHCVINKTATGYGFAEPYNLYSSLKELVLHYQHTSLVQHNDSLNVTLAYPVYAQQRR

PI3Kγ = molecular target: T3, PI3Kγ (Homo sapiens, UniProt P48736); experiment: TR-FRET enzymatic activity assay, PI3Kγ; details: read-out: PI3Kγ IC50
T3 construct: made in house
T3 sequence (P48736 whole entry): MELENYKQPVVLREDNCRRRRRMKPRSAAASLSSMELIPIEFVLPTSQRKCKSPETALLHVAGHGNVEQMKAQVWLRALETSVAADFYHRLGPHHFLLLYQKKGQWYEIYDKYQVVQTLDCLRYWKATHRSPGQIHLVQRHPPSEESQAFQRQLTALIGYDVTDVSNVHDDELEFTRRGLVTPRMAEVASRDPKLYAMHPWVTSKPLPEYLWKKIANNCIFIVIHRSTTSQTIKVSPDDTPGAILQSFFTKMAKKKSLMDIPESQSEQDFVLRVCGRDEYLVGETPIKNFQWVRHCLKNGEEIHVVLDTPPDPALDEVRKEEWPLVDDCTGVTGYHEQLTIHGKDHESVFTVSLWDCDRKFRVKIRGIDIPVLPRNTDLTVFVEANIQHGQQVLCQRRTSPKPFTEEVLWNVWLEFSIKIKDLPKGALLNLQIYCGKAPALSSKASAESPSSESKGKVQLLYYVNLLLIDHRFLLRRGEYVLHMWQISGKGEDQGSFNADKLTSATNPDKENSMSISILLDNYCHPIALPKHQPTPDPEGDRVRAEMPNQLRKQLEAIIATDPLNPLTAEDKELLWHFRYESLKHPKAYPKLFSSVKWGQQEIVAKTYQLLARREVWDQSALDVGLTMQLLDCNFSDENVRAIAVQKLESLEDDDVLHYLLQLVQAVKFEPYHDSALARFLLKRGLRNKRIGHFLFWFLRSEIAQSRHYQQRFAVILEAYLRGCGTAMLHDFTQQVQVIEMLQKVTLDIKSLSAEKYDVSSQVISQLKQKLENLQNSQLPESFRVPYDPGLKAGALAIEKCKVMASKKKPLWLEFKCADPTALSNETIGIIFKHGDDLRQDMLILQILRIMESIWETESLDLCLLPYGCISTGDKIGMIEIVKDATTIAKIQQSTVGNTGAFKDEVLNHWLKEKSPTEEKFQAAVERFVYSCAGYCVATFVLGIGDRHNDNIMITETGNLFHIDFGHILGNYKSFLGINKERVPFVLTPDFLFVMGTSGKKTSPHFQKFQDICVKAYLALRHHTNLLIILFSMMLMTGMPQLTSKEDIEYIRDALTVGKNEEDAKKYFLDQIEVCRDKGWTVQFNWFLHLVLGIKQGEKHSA
Experimental: The compounds of formula (I) were characterized for their enzymatic activity against the PI3K isoforms. The activities were measured using a time-resolved fluorescence resonance energy transfer (TR-FRET) assay.

[1] = Table 2, TR-FRET, 2x Km ATP, 30 minutes at 25° C.

T1 sequence (P42338 whole entry): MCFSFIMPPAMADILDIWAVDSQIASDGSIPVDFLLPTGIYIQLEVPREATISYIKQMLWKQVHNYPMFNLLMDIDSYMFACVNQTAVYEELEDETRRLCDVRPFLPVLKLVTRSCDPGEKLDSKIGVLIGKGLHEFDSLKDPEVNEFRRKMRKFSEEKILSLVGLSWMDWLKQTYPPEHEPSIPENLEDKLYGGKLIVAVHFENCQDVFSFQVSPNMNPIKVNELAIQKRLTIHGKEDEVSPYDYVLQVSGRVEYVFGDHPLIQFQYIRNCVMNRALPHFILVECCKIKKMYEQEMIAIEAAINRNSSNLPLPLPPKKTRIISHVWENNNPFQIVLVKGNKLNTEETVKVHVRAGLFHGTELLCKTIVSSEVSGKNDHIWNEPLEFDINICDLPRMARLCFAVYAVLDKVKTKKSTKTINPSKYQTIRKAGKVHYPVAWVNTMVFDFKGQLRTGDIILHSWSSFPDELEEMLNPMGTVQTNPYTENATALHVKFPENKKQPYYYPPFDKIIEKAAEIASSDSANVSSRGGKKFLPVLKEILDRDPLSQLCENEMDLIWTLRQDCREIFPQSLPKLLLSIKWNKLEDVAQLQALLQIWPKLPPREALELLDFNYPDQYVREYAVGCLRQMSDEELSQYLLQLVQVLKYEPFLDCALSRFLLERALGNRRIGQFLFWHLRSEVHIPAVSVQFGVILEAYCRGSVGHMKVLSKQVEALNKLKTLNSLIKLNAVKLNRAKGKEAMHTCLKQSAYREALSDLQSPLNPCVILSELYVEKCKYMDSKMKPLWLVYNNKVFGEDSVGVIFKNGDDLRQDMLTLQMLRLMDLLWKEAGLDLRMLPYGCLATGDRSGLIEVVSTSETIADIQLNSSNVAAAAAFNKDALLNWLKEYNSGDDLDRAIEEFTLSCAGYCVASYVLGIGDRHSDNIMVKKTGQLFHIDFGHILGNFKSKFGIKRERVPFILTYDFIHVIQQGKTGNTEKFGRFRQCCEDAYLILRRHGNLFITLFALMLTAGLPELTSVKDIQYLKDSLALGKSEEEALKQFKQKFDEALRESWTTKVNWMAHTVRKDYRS
T1 sequence (P27986 whole entry partner): as the sequence (P27986 whole entry partner) above

| SMILES | pIC50 (PI3Kβ; [1]) | pIC50 (PI3Kδ; [1]) | pIC50 (PI3Kγ) | pIC50 (PI3Kγ; [1]) | pIC50 (PI3Kβ; Table 2a, same assay) | pIC50 (PI3Kδ; Table 2a, same assay) | pIC50 (PI3Kγ; Table 2a, same assay) |
| --- | --- | --- | --- | --- | --- | --- | --- |
| Cc1cc(-n2c([C@H](C)Nc3ncnc4scnc34)nc3cccc(Cl)c3c2=O)n[nH]1 [Compound 8, (S)-5-chloro-3-(5-methyl-1H-pyrazol-3-yl)-2-(1-(thiazolo[5,4-d]pyrimidin-7-ylamino)ethyl)quinazolin-4(3H)-one] | 7.39 | 7.96 | < 5.00 |  |  |  |  |
| Cc1ccc(Cl)c2nc([C@H](C)Nc3nc(N)nc(N)c3Cl)n(-c3cc[nH]n3)c(=O)c12 [Compound 223, (S)-8-chloro-2-(1-((2,6-diamino-5-chloropyrimidin-4-yl)amino)ethyl)-5-methyl-3-(1H-pyrazol-3-yl)quinazolin-4(3H)-one] |  |  |  |  | 8.52 | 8.52 | 5.03 |
| Nc1nc(N)c(Cl)c(N[C@H](c2nc3c(Cl)cc(F)cc3c(=O)n2-c2cc[nH]n2)C2CCC2)n1 [Compound 129, (S)-8-chloro-2-(cyclobutyl((2,6-diamino-5-chloropyrimidin-4-yl)amino)methyl)-6-fluoro-3-(1H-pyrazol-3-yl)quinazolin-4(3H)-one] |  |  |  |  | 6.57 | 7.07 | < 5.00 |
| CC[C@H](Nc1ncnc2sccc12)c1nc2c(Cl)ccc(Cl)c2c(=O)n1-c1cc[nH]n1 [Compound 54, (S)-5,8-dichloro-3-(1H-pyrazol-3-yl)-2-(1-(thieno[2,3-d]pyrimidin-4-ylamino)propyl)quinazolin-4(3H)-one] | 6.62 | 7.74 | < 5.00 |  |  |  |  |
| O=c1c2c(Cl)ccc(Cl)c2nc([C@@H](Nc2ncnc3scnc23)C2CC2)n1-c1cn[nH]c1 [Compound 38, (S)-5,8-dichloro-2-(cyclopropyl(thiazolo[5,4-d]pyrimidin-7-ylamino)methyl)-3-(1H-pyrazol-4-yl)quinazolin-4(3H)-one] | 8.05 | 8.40 |  | 5.96 |  |  |  |
| C[C@H](Nc1nc(N)nc(N)c1Cl)c1nc2c(Cl)cc(F)cc2c(=O)n1-c1cn[nH]c1 [Compound 265, (S)-8-chloro-2-(1-((2,6-diamino-5-chloropyrimidin-4-yl)amino)ethyl)-6-fluoro-3-(1H-pyrazol-4-yl)quinazolin-4(3H)-one] |  |  |  |  | 6.74 | 7.51 | 5.51 |
| N#Cc1c(N[C@H](c2nc3c(Cl)cc(F)cc3c(=O)n2-c2cn[nH]c2)C2CC2)nc(N)nc1C(F)F [Compound 184, (S)-2-amino-4-(((8-chloro-6-fluoro-4-oxo 3-(1H-pyrazol-4-yl)-3,4-dihydroquinazolin-2-yl)(cyclopropyl)methyl)amino)-6-(difluoromethyl)pyrimidine-5-carbonitrile] |  |  |  |  | 8.10 | 8.05 | 5.82 |
| Nc1nc(N)c(Cl)c(N[C@H](c2nc3c(F)ccc(F)c3c(=O)n2-c2cc[nH]n2)C2CC2)n1 [Compound 11, (S)-2-(cyclopropyl((2,6-diamino-5-chloropyrimidin-4-yl)amino)methyl)-5,8-difluoro-3-(1H-pyrazol-3-yl)quinazolin-4(3H)-one] | 6.92 | 7.36 | < 5.00 |  |  |  |  |
| N#Cc1c(N)nc(N)nc1N[C@H](c1nc2c(Cl)cc(F)cc2c(=O)n1-c1c[nH]cn1)C1CC1 [Compound 281, (S)-2,4-diamino-6-(((8-chloro-6-fluoro-3-(1H-imidazol-4-yl)-4-oxo-3,4-dihydroquinazolin-2-yl)(cyclopropyl)methyl)amino)pyrimidine-5-carbonitrile] |  |  |  |  | 8.70 | 9.00 | 6.21 |
| C[C@H](Nc1nc(N)nc(N)c1Cl)c1nc2c(Cl)cc(F)cc2c(=O)n1-c1n[nH]cc1Br [Compound 270, (S)-3-(4-bromo-1H-pyrazol-3-yl)-8-chloro-2-(1-((2,6-diamino-5-chloropyrimidin-4-yl)amino)ethyl)-6-fluoroquinazolin-4(3H)-one] |  |  |  |  | 5.64 | 7.59 | < 5.00 |
| N#Cc1c(N[C@H](c2nc3c(C(F)F)cc(F)cc3c(=O)n2-c2cc[nH]n2)C2CC2)nc(N)nc1C(F)F [Compound 145, (S)-2-amino-4-((cyclopropyl(8-(difluoromethyl)-6-fluoro-4-oxo-3-(1H-pyrazol-3-yl)-3,4-dihydroquinazolin-2-yl)methyl)amino)-6-(difluoromethyl)pyrimidine-5-carbonitrile] |  |  |  |  | 7.55 | 7.34 | < 5.00 |
| O=c1c2c(Cl)cccc2nc([C@H](COCc2ccccc2)Nc2ncnc3scnc23)n1-c1cn[nH]c1 [Compound 47, (R)-2-(2-(benzyloxy)-1-(thiazolo[5,4-d]pyrimidin-7-ylamino)ethyl)-5-chloro-3-(1H-pyrazol-4-yl)quinazolin-4(3H)-one] | 7.96 | 7.96 |  | 5.62 |  |  |  |
| C[C@H](Nc1ncnc2occc12)c1nc2cccc(Cl)c2c(=O)n1-c1cc[nH]n1 [Compound 9, (S)-5-chloro-2-(1-(furo[2,3-d]pyrimidin-4-ylamino)ethyl)-3-(1H-pyrazol-3-yl)quinazolin-4(3H)-one] | 6.03 | 6.85 | < 5.00 |  |  |  |  |
| Nc1nc(N)c(Cl)c(N[C@H](c2nc3c(F)ccc(Cl)c3c(=O)n2-c2cc[nH]n2)C2CC2)n1 [Compound 70, (S)-5-chloro-2-(cyclopropyl((2,6-diamino-5-chloropyrimidin-4-yl)amino)methyl)-8-fluoro-3-(1H-pyrazol-3-yl)quinazolin-4(3H)-one] | 7.52 | 7.85 | < 5.00 |  |  |  |  |
| C[C@H](Nc1ncnc2scc(Br)c12)c1nc2cccc(Cl)c2c(=O)n1-c1cc[nH]n1 [Compound 150, (S)-2-(1-((5-bromothieno[2,3-d]pyrimidin-4-yl)amino)ethyl)-5-chloro-3-(1H-pyrazol-3-yl)quinazolin-4(3H)-one] |  |  |  |  | 8.22 | 8.70 | 5.52 |
| Nc1nc(N)c(Cl)c(N[C@H](c2nc3cccc(Cl)c3c(=O)n2-c2cc(Cl)[nH]n2)C2CC2)n1 [Compound 14, (S)-5-chloro-3-(5-chloro-1H-pyrazol-3-yl)-2-(cyclopropyl((2,6-diamino-5-chloropyrimidin-4-yl)amino)methyl)quinazolin-4(3H)-one] | 6.46 | 7.29 |  | 5.12 |  |  |  |
| Cc1nc(N)nc(N[C@H](c2nc3cccc(Cl)c3c(=O)n2-c2cn[nH]c2)C2CC2)c1C#N [Compound 27, (S)-2-amino-4-(((5-chloro-4-oxo-3-(1H-pyrazol-4-yl)-3,4-dihydroquinazolin-2-yl)(cyclopropyl)methyl)amino)-6-methylpyrimidine-5-carbonitrile] | 8.70 | 9.15 |  | 7.15 |  |  |  |

Now from value to molecule:

| pIC50 (PI3Kβ; [1]) | pIC50 (PI3Kδ; [1]) | pIC50 (PI3Kγ) | pIC50 (PI3Kγ; [1]) | pIC50 (PI3Kβ; Table 2a, same assay) | pIC50 (PI3Kδ; Table 2a, same assay) | pIC50 (PI3Kγ; Table 2a, same assay) | SMILES |
| --- | --- | --- | --- | --- | --- | --- | --- |
| 8.70 | 9.00 |  | 6.01 |  |  |  | N#Cc1c(N)nc(N)nc1N[C@H](c1nc2ccc(F)cc2c(=O)n1-c1cc[nH]n1)C1CC1 [Compound 113, (S)-2,4-diamino-6-((cyclopropyl(6-fluoro-4-oxo-3-(1H-pyrazol-3-yl)-3,4-dihydroquinazolin-2-yl)methyl)amino)pyrimidine-5-carbonitrile] |
| 9.52 | 9.22 |  | 6.96 |  |  |  | CC[C@H](Nc1nc(N)nc(N)c1C#N)c1nc2cccc(Br)c2c(=O)n1-c1cc[nH]n1 [Compound 98, (S)-2,4-diamino-6-((1-(5-bromo-4-oxo-3-(1H-pyrazol-3-yl)-3,4-dihydroquinazolin-2-yl)propyl)amino)pyrimidine-5-carbonitrile] |
|  |  |  |  | 7.00 | 7.38 | < 5.00 | Nc1nc(N)c(Cl)c(N[C@H](c2nc3cc(F)cc(Cl)c3c(=O)n2-c2cc[nH]n2)C2CC2)n1 [Compound 240, (S)-5-chloro-2-(cyclopropyl((2,6-diamino-5-chloropyrimidin-4-yl)amino)methyl)-7-fluoro-3-(1H-pyrazol-3-yl)quinazolin-4(3H)-one] |
| 9.00 | 9.30 |  | 6.02 |  |  |  | CC[C@H](Nc1ncnc2scnc12)c1nc2cccc(Br)c2c(=O)n1-c1cc[nH]n1 [Compound 101, (S)-5-bromo-3-(1H-pyrazol-3-yl)-2-(1-(thiazolo[5,4-d]pyrimidin-7-ylamino)propyl)quinazolin-4(3H)-one] |
|  |  |  |  | 8.30 | 9.70 | 7.92 | C[C@H](Nc1nc(N)nc(N)c1C#N)c1nc2cccc(Cl)c2c(=O)n1-c1ccc[nH]1 [Compound 289, (S)-2,4-diamino-6-((1-(5-chloro-4-oxo-3-(1H-pyrrol-2-yl)-3,4-dihydroquinazolin-2-yl)ethyl)amino)pyrimidine-5-carbonitrile] |
| 6.96 | 7.64 | < 5.00 |  |  |  |  | Nc1nc(N)c(Cl)c(N[C@H](c2nc3ccc(F)cc3c(=O)n2-c2cc[nH]n2)C2CC2)n1 [Compound 114, (S)-2-(cyclopropyl((2,6-diamino-5-chloropyrimidin-4-yl)amino)methyl)-6-fluoro-3-(1H-pyrazol-3-yl)quinazolin-4(3h)-one] |
|  |  |  |  | 7.47 | 7.64 | 5.65 | C[C@H](Nc1nc(N)nc(C(F)F)c1C#N)c1nc2cccc(C(F)(F)F)c2c(=O)n1-c1cc[nH]n1 [Compound 178, (S)-2-amino-4-(difluoromethyl)-6-((1-(4-oxo-3-(1H-pyrazol-3-yl)-5-(trifluoromethyl)-3,4-dihydroquinazolin-2-yl)ethyl)amino)pyrimidine-5-carbonitrile] |
| 8.10 | 9.40 |  | 7.03 |  |  |  | C[C@H](Nc1nc(N)nc(N)c1C#N)c1nc2cccc(Cl)c2c(=O)n1-c1n[nH]cc1Br [Compound 84, (S)-2,4-diamino-6-((1-(3-(4-bromo-1H-pyrazol-3-yl)-5-chloro-4-oxo-3,4-dihydroquinazolin-2-yl)ethyl)amino)pyrimidine-5-carbonitrile] |
